How the values were obtained:
Format in all cases: cell-based
Conditions in all cases: 0.1 μM, 24 hours, human epidermal keratinocytes, n=2, vs control
CNFN = assay: Expression of transcripts in human keratinocytes (RT-qPCR): CNFN
Description: (§1) Human epidermal keratinocytes were seeded in a 24-well culture plate and cultured for 72 hours at 37° C. and 5% CO2 in culture medium with renewal of the culture medium after the first 24 hours. At the end of the incubation, the culture medium was replaced with assay medium (supplemented with 1.5 mM CaCl2) containing starting or reference material (retinoic acid) or not containing same (control), and cells were incubated for another 24 hours. All the experimental conditions were performed in n=2. At the end of the treatment, the cells were washed twice in PBS (without CaCl2, without MgCl2) and RNA extraction was carried out using TriPure Isolation Reagent® according to the manufacturer's recommendations. The relative expression of the selected markers was measured by two-step RT-qPCR. First, reverse transcription was performed with the aid of Transcriptor Reverse Transcriptase (Roche) according to the manufacturer's recommendations. Then, PCR experiments were performed using a LightCycler® 480 real-time PCR system with a SYBR®Green incorporation measurement system (Roche).

SPRR1A = assay: Expression of transcripts in human keratinocytes (RT-qPCR): SPRR1A
Description: as §1

TGM1 = assay: Expression of transcripts in human keratinocytes (RT-qPCR): TGM1
Description: as §1

CLDN1 = assay: Expression of transcripts in human keratinocytes (RT-qPCR): CLDN1
Description: as §1

AQP3 = assay: Expression of transcripts in human keratinocytes (RT-qPCR): AQP3
Description: as §1

With CC1=C(/C=C/C(C)=C/C=C/C(C)=C/C(=O)O)C(C)(C)CCC1 [Retinoic acid, retinoic acid] the “relative expression of CNFN” value (CNFN) was 0.46, the “relative expression of SPRR1A” value (SPRR1A) was 0.26 and the “relative expression of TGM1” value (TGM1) was 0.49. For the same compound, the “relative expression of CLDN1” value (CLDN1) was 0.85 and the “relative expression of AQP3” value (AQP3) was 1.04.
